Data: the NIST ThermoML archive (doi:10.1016/j.jct.2017.07.013)
± gives the expanded uncertainty stated by the source.

Experiment: refractive index (Na D-line) (dimensionless); xn = mol fraction of the nth substance listed
Settings: 101.3 kPa, Liquid, Standard Abbe refractometry

CCCC[n+]1ccn(C)c1.O=S(=O)([N-]S(=O)(=O)C(F)(F)F)C(F)(F)F + COC(=O)OC
refractive index
Settings	303.15 K	308.15 K	313.15 K	318.15 K	323.15 K
x1 = 0.0512	1.3757 ± 0.0011	1.3741 ± 0.0011	1.3744 ± 0.0011	1.3724 ± 0.0011	1.3719 ± 0.0011
x1 = 0.101	1.3844 ± 0.0011	1.383 ± 0.0011	1.3836 ± 0.0011	1.3819 ± 0.0011	1.3817 ± 0.0011
x1 = 0.1495	1.3913 ± 0.0011	1.39 ± 0.0011	1.3907 ± 0.0011	1.3892 ± 0.0011	1.3893 ± 0.0011
x1 = 0.1945	1.3965 ± 0.0011	1.3953 ± 0.0011	1.3959 ± 0.0011	1.3946 ± 0.0011	1.3948 ± 0.0011
x1 = 0.2994	1.4053 ± 0.0011	1.4042 ± 0.0011	1.4042 ± 0.0011	1.403 ± 0.0011	1.4033 ± 0.0011
x1 = 0.3999	1.4106 ± 0.0011	1.4095 ± 0.0011	1.4089 ± 0.0011	1.4077 ± 0.0011	1.4078 ± 0.0011
x1 = 0.4976	1.4141 ± 0.0011	1.4131 ± 0.0011	1.4119 ± 0.0011	1.4107 ± 0.0011	1.4106 ± 0.0011
x1 = 0.5842	1.4165 ± 0.0011	1.4155 ± 0.0011	1.414 ± 0.0011	1.4128 ± 0.0011	1.4126 ± 0.0011
x1 = 0.6886	1.4191 ± 0.0011	1.4181 ± 0.0011	1.4166 ± 0.0011	1.4154 ± 0.0011	1.4149 ± 0.0011
x1 = 0.7475	1.4204 ± 0.0011	1.4195 ± 0.0011	1.418 ± 0.0011	1.4168 ± 0.0011	1.4162 ± 0.0011
x1 = 0.8014	1.4216 ± 0.0011	1.4207 ± 0.0011	1.4193 ± 0.0011	1.4181 ± 0.0011	1.4172 ± 0.0011
x1 = 0.889	1.4233 ± 0.0011	1.4223 ± 0.0011	1.4208 ± 0.0011	1.4196 ± 0.0011	1.4185 ± 0.0011
x1 = 0.9526	1.4242 ± 0.0011	1.423 ± 0.0011	1.4213 ± 0.0011	1.4199 ± 0.0011	1.4183 ± 0.0011
x1 = 1	1.4245 ± 0.0011	1.4231 ± 0.0011	1.421 ± 0.0011	1.4195 ± 0.0011	1.4173 ± 0.0011
